The values below come from patent US20050070594A1, “Use of angiotensin II receptor antagonists” (Boehringer Ingelheim International GmbH, priority 2003, published 2005).

SMILES strings stand for the structures.

In assay [1] the test system is PPARgamma. Description: Transcription reporter assay (PPRE-luciferase) in 3T3-L1 adipocytes. It counts as cell-based, mouse. Particulars: 10 μmol/L, 24 hours. On the procedure:
3T3-L1 adipocytes (day 4) or PC12W cells are transfected with Lipofectamine 2000 (Invitrogen) in the presence of 1 μg (for 3T3-L1 cells) or 50 ng (for PC12W cells) of a reporter construct, PPARgamma2 and RXRalpha expression vectors and 10 ng of a Renilla Luciferase Reporter control vector. The reporter construct is a fusion of 3xAcyl-CoA oxidase PPAR Response Element (PPRE) with Tk-luciferase. […] The Luciferase Reporter control vector is the plasmid pRL-CMV (Promega).
(A reporter such as luciferase makes a cellular process visible.)

Assay [2] concerns the target T1, human PPARgamma-ligand binding domain (LBD) (Homo sapiens, UniProt P37231).
T1 sequence (P37231 205-505): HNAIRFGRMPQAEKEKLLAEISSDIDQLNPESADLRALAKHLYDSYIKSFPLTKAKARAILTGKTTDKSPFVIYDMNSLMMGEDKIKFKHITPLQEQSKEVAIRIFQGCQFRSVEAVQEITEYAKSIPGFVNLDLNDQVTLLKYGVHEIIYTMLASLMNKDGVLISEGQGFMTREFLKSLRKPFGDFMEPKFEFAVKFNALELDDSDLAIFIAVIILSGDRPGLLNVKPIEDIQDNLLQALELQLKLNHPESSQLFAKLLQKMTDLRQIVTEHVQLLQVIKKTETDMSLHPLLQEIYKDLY
T1 sequence (P19793 220-461 partner limits assumed): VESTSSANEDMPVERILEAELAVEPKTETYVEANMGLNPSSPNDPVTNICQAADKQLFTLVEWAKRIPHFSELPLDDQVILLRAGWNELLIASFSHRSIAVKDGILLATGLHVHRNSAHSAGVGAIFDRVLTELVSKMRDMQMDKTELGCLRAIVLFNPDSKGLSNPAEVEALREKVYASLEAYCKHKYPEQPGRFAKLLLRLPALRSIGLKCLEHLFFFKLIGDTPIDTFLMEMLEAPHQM
Description: SPA assay: displacement of 3H-labelled rosiglitazone from GST-PPARgamma-LBD. Conditions: NSB 217, Bmax 911. On the procedure: Protein containing the human PPARgamma-ligand binding domain (LBD) is prepared as a GST fusion protein in E.coli and purified by affinity chromatography. To do this, a DNA section which codes for the amino acids 205-505 of the human PPARgamma2 transcription factor (cf. Genbank entry U79012) is subcloned via the additionally introduced restriction cutting sites BamH I and Xho I into the expression vector pGEX-4T-1 (Amersham) and the sequence of the section is monitored. […] The bacteria are pelleted after the induction and frozen in batches in PBS, pH 7.4. After opening up in a French Press, the dissolved GST-PPARgamma-LBD-fusion protein is purified using a GSTrap column (Pharmacia). Elution is carried out by the addition of 20 mM reduced glutathione. The GST-PPARgamma-LBD-protein fractions are desalinated using a HiTrap desalting column (Pharmacia) and the protein concentration is determined using a standard assay. Protein containing the human RXRalpha ligand binding domain (LBD) is prepared as a His tag fusion protein in E.coli and purified by affinity chromatography. To do this a DNA section which codes for the amino acids 220-461 of the human RXRalpha transcription factor (cf. Genbank entry NM_002957, nt 729-1457) is subcloned via the additionally introduced restriction cutting sites BamH I and Not I into the expression vector pET28c (Novagen) and the sequence of the section is monitored. […] The bacteria are pelleted after the expression and frozen in batches in PBS, pH 7.4. After opening up in a French Press, the dissolved His-RXRalpha-LBD-fusion protein is purified using a HiTrap chelating column (Pharmacia). Elution is carried out using a 500 mM imidazole step. The His-RXRalpha-LBD protein fractions are desalinated using a HiTrap desalting column (Pharmacia) and the protein concentration is determined using a standard assay. A description of the SPA assay format can be found in Mukheriee R et al., J Steroid Biochem Mol Biol (2002) 81:217-225.
(In general: Loss of bound radioactivity is the signal in a displacement assay; it reports binding, not function.)

Assay [3] relates to 3T3-L1 adipocytes. Description: Lipid accumulation and differentiation of 3T3-L1 adipocytes (Oil Red-O staining). It counts as cell-based, mouse. An excerpt:
3T3-L1 mouse preadipocytes are cultivated in DMEM (Dulbecco's modified eagle medium) with 10% foetal calf serum (FBS). PC12W cells are cultivated in DMEM with 5% FBS and 10% equine serum. In both cases the media contain 1% penicillin/streptomycin.
The differentiation of adipocytes is induced 2-3 days after cell confluence by adding a differentiating solution. This contains • 1 μmol/L of dexamethasone, • 0.5 mmol/L of 3-isobutyl-1-methylxanthine, • 1.67 μmol/L of insulin, and • 10% FBS.
Then the cells are stimulated for another 48 hours before finally being analysed (day 4).
Cells are washed with PBS and fixed with a 3.7% formaldehyde solution for 2 minutes. After fixing, the cells are stained for 1 hour at ambient temperature with a 0.5% stock solution of Oil Red-O in isopropanol diluted 3:2 with water. After washing, the cells are examined under a light microscope.

The target in assay [4] is T2, ligand binding domain of the human PPARgamma2 transcription factor (Gal4 DNA binding domain fusion) (Homo sapiens, UniProt P37231).
T2 construct: codes for amino acids 205-505 of the human PPARgamma2 transcription factor; expressed in transfected cells
T2 sequence (P37231 205-505): T1 sequence (P37231 205-505)
Description: Luciferase activity in stably transformed PPARgamma reporter cell line (CHO-K1 clone 11). Particulars: 24 hours. The class given is cell-based. The procedure: The resulting plasmid pFA-CMV/hPPARgamma2-LBD codes N-terminally of the PPARgamma-LBD in the same reading frame for a Gal4 DNA binding domain. In addition the plasmid codes for a neomycin resistance.
The cell line CHO-K1 (ATCC CCL-61) is cotransfected with the plasmids pFA-CMV/hPPARgamma2-LBD and pFR-Luc (Stratagene). pFR-Luc codes for the luciferase gene under the control of a five-times repeated yeast Gal4 binding site. The transfection is carried out with lipofectamine2000 in accordance with the manufacturer's instructions.
After six days' cultivation the cells are passaged and kept in culture for another 10 days. The resulting neomycin-resistant colonies are picked out under the microscope and transferred into 96 well-dishes and cultured.
The test substances are brought to 100 times the desired concentration with a suitable solvent, e.g. DMSO, and diluted 1:100 with the medium placed in the cell culture plate. The solvent used, e.g. DMSO, is used as the background control in the same concentration.
Luminescence is measured after a five minute wait using a Packard TopCount NXT. The luciferase activity is obtained by integrating the relative luciferase units (RLU) of the first ten seconds after the start of measurement.

As for `CCCc1nc2c(C)cc(-c3nc4ccccc4n3C)cc2n1Cc1ccc(-c2ccccc2C(=O)O)cc1` [telmisartan], in assay [1], the “induction of the transcriptional activity of PPARgamma, factor” value was 3.4±0.9. The “SPA signal, bound 3H-rosiglitazone (MW)” value in assay [2] (1.00E−04 M test substance) was 545; in assay [2] (1.00E−05 M test substance) it was 703; in assay [2] (1.00E−06 M test substance), 818; in assay [2] (1.00E−07 M test substance), 837; in assay [2] (3.00E−05 M test substance) it was 691; in assay [2] (3.00E−06 M test substance), 818. Further, in assay [2] (3.00E−07 M test substance), the “SPA signal, bound 3H-rosiglitazone (MW)” value is 802. In assay [3], the “differentiation of 3T3-L1 adipocytes” value is “promoted”. Further, the “accumulation of lipids (Oil Red-O staining)” value in assay [3] (10 μmol/L, day 4) is “increased accumulation of lipids”. The “luciferase activity (MW)” value in assay [4] (1.00E−05 M) is 61397 RLU; in assay [4] (1.00E−06 M), 2859 RLU; in assay [4] (3.00E−05 M), 58790 RLU; in assay [4] (3.00E−06 M), 24498 RLU; in assay [4] (3.00E−07 M), 760 RLU.
